Experimental data taken from PubChem BioAssay AID248 (DTP/NCI, 2004).
Toxic doses and inconclusive results are not listed. Cut-off read from the data, not from the text of the source: active = T/C of 150% or more; inactive = T/C below 125%.

System: L1210 leukemia ip in BDF1 mice, survival T/C
Assay: NCI In Vivo Anticancer Drug Screen. Data for tumor model L1210 Leukemia (intraperitoneal) in B6D2F1 (BDF1) mice
Details: endpoint: mean survival time, higher = longer survival
How it was run: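 Ratio derived from survival: compound-dosed mice over vehicle-dosed mice, all bearing a transplantable tumor.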

[1] = dose: 100.0 mg/kg/injection, schedule: Q01DX001 (ip), vehicle: saline
[2] = dose: 100.0 mg/kg/injection, schedule: Q04DX003 (ip), vehicle: saline
[3] = dose: 200.0 mg/kg/injection, schedule: Q01DX001 (ip), vehicle: saline
[4] = dose: 200.0 mg/kg/injection, schedule: Q04DX003 (ip), vehicle: saline
[5] = dose: 400.0 mg/kg/injection, schedule: Q01DX001 (ip), vehicle: saline
[6] = dose: 400.0 mg/kg/injection, schedule: Q04DX003 (ip), vehicle: saline
[7] = dose: 50.0 mg/kg/injection, schedule: Q01DX001 (ip), vehicle: carboxymethylcellulose (CMC)
[8] = dose: 100.0 mg/kg/injection, schedule: Q01DX001 (ip), vehicle: carboxymethylcellulose (CMC)
[9] = dose: 200.0 mg/kg/injection, schedule: Q01DX001 (ip), vehicle: carboxymethylcellulose (CMC)
[10] = dose: 400.0 mg/kg/injection, schedule: Q01DX001 (ip), vehicle: carboxymethylcellulose (CMC)
[11] = dose: 100.0 mg/kg/injection, schedule: Q04DX002 (ip), vehicle: saline with Tween-80
[12] = dose: 200.0 mg/kg/injection, schedule: Q04DX002 (ip), vehicle: saline with Tween-80
[13] = dose: 400.0 mg/kg/injection, schedule: Q04DX002 (ip), vehicle: saline with Tween-80
[14] = dose: 50.0 mg/kg/injection, schedule: Q01DX001 (ip), vehicle: saline
[15] = dose: 100.0 mg/kg/injection, schedule: Q01DX009 (ip), vehicle: saline with Tween-80
[16] = dose: 200.0 mg/kg/injection, schedule: Q01DX009 (ip), vehicle: saline with Tween-80
[17] = dose: 400.0 mg/kg/injection, schedule: Q01DX009 (ip), vehicle: saline with Tween-80
[18] = dose: 100.0 mg/kg/injection, schedule: Q04DX003 (ip), vehicle: saline with Tween-80
[19] = dose: 200.0 mg/kg/injection, schedule: Q04DX003 (ip), vehicle: saline with Tween-80
[20] = dose: 400.0 mg/kg/injection, schedule: Q04DX003 (ip), vehicle: saline with Tween-80
[21] = dose: 100.0 mg/kg/injection, schedule: Q04DX003 (ip), vehicle: Klucel (hydroxypropylcellulose) (HPC)
[22] = dose: 200.0 mg/kg/injection, schedule: Q04DX003 (ip), vehicle: Klucel (hydroxypropylcellulose) (HPC)
[23] = dose: 400.0 mg/kg/injection, schedule: Q04DX003 (ip), vehicle: Klucel (hydroxypropylcellulose) (HPC)
[24] = dose: 100.0 mg/kg/injection, schedule: Q01DX009 (ip), vehicle: Klucel (hydroxypropylcellulose) (HPC)

Measured: T/C

CN(C)CCC(C(=O)c1ccccc1)c1ccccn1 (configuration not stated)
inactive: dose: 55.0 mg/kg/injection, schedule: Q01DX Z (ip), vehicle: saline 100 % of control | dose: 83.0 mg/kg/injection, schedule: Q01DX Z (ip), vehicle: saline 107 % of control | dose: 125.0 mg/kg/injection, schedule: Q01DX Z (ip), vehicle: saline 96 % of control

NC(N)=Nc1nc(N)nc(N)n1
inactive: dose: 50.0 mg/kg/injection, schedule: Q01DX009 (ip), vehicle: saline with Tween-80 108 % of control

C[C@]12C=CC(=O)C=C1CC[C@@H]1[C@@H]2CC[C@]2(C)OC(=O)CC[C@@H]12
inactive: dose: 125.0 mg/kg/injection, schedule: Q01DX Z (sc), vehicle: steriod suspending solution 103 % of control | dose: 250.0 mg/kg/injection, schedule: Q01DX Z (sc), vehicle: steriod suspending solution 102 % of control | dose: 500.0 mg/kg/injection, schedule: Q01DX Z (sc), vehicle: steriod suspending solution 101 % of control | dose: 1000.0 mg/kg/injection, schedule: Q01DX Z (sc), vehicle: steriod suspending solution 101 % of control

COC(=O)c1cccc(C)n1
inactive: [1] 94 % of control | [2] 104 % of control | [3] 100 % of control | [4] 97 % of control | [5] 96 % of control | [6] 92 % of control

Nc1cc(Cl)ccc1Nc1ccccc1
inactive: [7] 101 % of control | [8] 109 % of control | [9] 101 % of control | [10] 101 % of control

S=P(N1CCOCC1)(N1CCOCC1)N1CCOCC1
inactive: dose: 100.0 mg/kg/injection, schedule: Q04DX002 (ip), vehicle: Klucel (hydroxypropylcellulose) (HPC) 103 % of control | dose: 200.0 mg/kg/injection, schedule: Q04DX002 (ip), vehicle: Klucel (hydroxypropylcellulose) (HPC) 89 % of control | dose: 400.0 mg/kg/injection, schedule: Q04DX002 (ip), vehicle: Klucel (hydroxypropylcellulose) (HPC) 113 % of control

Cc1c2c(cc3c1OCN(Cc1ccccc1)C3)CN(Cc1ccccc1)CO2
inactive: [7] 105 % of control | [8] 94 % of control | [9] 89 % of control | [10] 91 % of control

O=[N+]([O-])c1ccccc1C1CCCCC1
inactive: [11] 89 % of control | [12] 93 % of control | [13] 100 % of control

CCOc1ccc(Cl)cc1C1N(Cc2ccc(OC)cc2)CCCN1Cc1ccc(OC)cc1
inactive: [8] 98 % of control | [9] 98 % of control | [10] 102 % of control

Cc1ccc(C(=O)c2ccc([N+](=O)[O-])cc2)cc1
inactive: [14] 103 % of control | [1] 101 % of control | [3] 92 % of control | [5] 114 % of control

O=C(Nc1ccc(Cl)cc1)C(=O)Nc1ccc(Cl)cc1
inactive: dose: 100.0 mg/kg/injection, schedule: Q04DX002 (ip), vehicle: gum acacia 107 % of control | dose: 200.0 mg/kg/injection, schedule: Q04DX002 (ip), vehicle: gum acacia 89 % of control | dose: 400.0 mg/kg/injection, schedule: Q04DX002 (ip), vehicle: gum acacia 93 % of control

COc1ccc(C)cc1NC(=O)SCc1ccccc1
inactive: [15] 100 % of control | [16] 101 % of control | [17] 94 % of control

CCCCC/C(C=O)=C\c1ccccc1
inactive: [15] 104 % of control | [18] 94 % of control | [16] 91 % of control | [19] 96 % of control | [17] 93 % of control | [20] 105 % of control

Nc1ccc(Oc2ccc(Cl)cc2)c(Cl)c1
inactive: [15] 103 % of control | [21] 103 % of control | [16] 94 % of control | [22] 92 % of control | [23] 111 % of control

Cc1ccc(S(=O)(=O)C2CCCC2Cl)cc1 (configuration not stated)
inactive: [8] 109 % of control | [1] 107 % of control | [9] 104 % of control | [3] 104 % of control | [10] 104 % of control | [5] 87 % of control

COP(=O)(OC)C(OC(=O)C(C)(C)C)=C(C)C
inactive: [18] 98 % of control | [19] 110 % of control | [20] 93 % of control

CCSC1C(O)C(C(O)CO)OC1n1cc(C)c(=O)[nH]c1=O (configuration not stated)
inactive: dose: 100.0 mg/kg/injection, schedule: Q01DX005 (ip), vehicle: saline 102 % of control | dose: 200.0 mg/kg/injection, schedule: Q01DX005 (ip), vehicle: saline 107 % of control

COc1cc(C=O)ccc1OC(=O)Nc1ccc([N+](=O)[O-])cc1Cl
inactive: [24] 98 % of control | [21] 103 % of control | dose: 200.0 mg/kg/injection, schedule: Q01DX009 (ip), vehicle: Klucel (hydroxypropylcellulose) (HPC) 98 % of control | [22] 97 % of control | dose: 400.0 mg/kg/injection, schedule: Q01DX009 (ip), vehicle: Klucel (hydroxypropylcellulose) (HPC) 98 % of control | [23] 105 % of control

O=CO.[Pb]
inactive: [1] 90 % of control | [3] 92 % of control | [5] 98 % of control

CCOP(=O)(OCC)c1ccccc1Br
inactive: dose: 100.0 mg/kg/injection, schedule: Q01DX001 (ip), vehicle: acetone 89 % of control | dose: 200.0 mg/kg/injection, schedule: Q01DX001 (ip), vehicle: acetone 87 % of control | dose: 400.0 mg/kg/injection, schedule: Q01DX001 (ip), vehicle: acetone 89 % of control

CCOC(=O)C1CN(Cc2ccccc2)CCC1=O (configuration not stated)
inactive: [2] 103 % of control | [4] 106 % of control | [6] 100 % of control

CCOC(=O)NC1Cc2cc(C)cc(C)c21 (configuration not stated)
inactive: dose: 10.0 mg/kg/injection, schedule: Q04DX002 (ip), vehicle: Klucel (hydroxypropylcellulose) (HPC) 120 % of control | dose: 20.0 mg/kg/injection, schedule: Q04DX002 (ip), vehicle: Klucel (hydroxypropylcellulose) (HPC) 100 % of control | dose: 40.0 mg/kg/injection, schedule: Q04DX002 (ip), vehicle: Klucel (hydroxypropylcellulose) (HPC) 103 % of control

Clc1nc(Cl)c2c(n1)NCCN2
inactive: dose: 50.0 mg/kg/injection, schedule: Q01DX009 (ip), vehicle: Klucel (hydroxypropylcellulose) (HPC) 106 % of control | [24] 103 % of control

C=CCNC(=S)NNC(=O)CCCC(=O)NNC(=S)NCC=C
inactive: [14] 90 % of control | [1] 93 % of control | [5] 102 % of control

Oc1cc2ccccc2cc1O
inactive: [11] 104 % of control | [12] 97 % of control | [13] 93 % of control

CCCCCC/C=N\N=C(N)N
inactive: dose: 15.0 mg/kg/injection, schedule: Q01DX Z (ip), vehicle: saline 97 % of control | dose: 30.0 mg/kg/injection, schedule: Q01DX Z (ip), vehicle: saline 97 % of control | dose: 60.0 mg/kg/injection, schedule: Q01DX Z (ip), vehicle: saline 102 % of control | dose: 60.0 mg/kg/injection, schedule: Q01DX Z (oral), vehicle: saline 100 % of control | dose: 120.0 mg/kg/injection, schedule: Q01DX Z (ip), vehicle: saline 88 % of control | dose: 120.0 mg/kg/injection, schedule: Q01DX Z (oral), vehicle: saline 98 % of control | dose: 240.0 mg/kg/injection, schedule: Q01DX Z (oral), vehicle: saline 91 % of control | dose: 480.0 mg/kg/injection, schedule: Q01DX Z (oral), vehicle: saline 98 % of control
